From PubChem BioAssay (NCI)
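Cells were grown in 96-well plates and exposed to each compound for 48 hours at five concentrations; endpoints were interpolated linearly between bracketing concentrations, or set to the highest concentration if not reached. The concentration for 50% growth inhibition is given as GI50. At the TGI there is no net growth.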 *1 amine or outer side, *2 acyl side, *3 side chain or, on linkers, in order; H or OH if unused. Where a SMILES comes first, the peptide text is derived from it. [ ]: non-standard residue; d: D form. ξ: configuration not given here. X21 = CC[C@@H](C)C(N[*:1])C(=O)[*:2]; ξR = N=C(N)NCCCC(N)C(=O)O; ξI = CCC(C)C(N)C(=O)O; ξL = CC(C)CC(N)C(=O)O; ξK = NCCCCC(N)C(=O)O; ξV = CC(C)C(N)C(=O)O; ξA = CC(N)C(=O)O

How the values were obtained:
Test in all cases: NCI anticancer screen, dose series, 48 h
[1] = test system: SK-OV-3 ovarian
[2] = test system: CAKI-1 renal
[3] = test system: SW-620 colon
[4] = test system: K-562 leukemia
[5] = test system: A498 renal
[6] = test system: HOP-92 NSCLC
[7] = test system: MCF7 breast
[8] = test system: SNB-19 CNS
[9] = test system: RXF 393 renal
[10] = test system: BT-549 breast

SMILES	GI50 [1]	TGI [1]	GI50 [2]	TGI [2]	GI50 [3]	TGI [3]	GI50 [4]	TGI [4]	GI50 [5]	TGI [5]	GI50 [6]	TGI [6]	GI50 [7]	TGI [7]	GI50 [8]	TGI [8]	GI50 [9]	TGI [9]	GI50 [10]	TGI [10]
CCCN(CCSSCCNc1nc(N(C)O)nc(N(C)O)n1)c1nc(N(C)O)nc(N(C)O)n1	3.16 µM	> 100 µM	2.47 µM	> 100 µM	6.72 µM	> 100 µM	15.7 µM	> 100 µM	19.5 µM	> 100 µM	6.1 µM	> 100 µM	4.68 µM	> 100 µM	4.15 µM	> 100 µM	81 µM	> 100 µM	7.6 µM	> 100 µM
CCSc1nnc(-c2ccc3ccccc3c2O)n1-c1ccc(Cl)cc1	69.5 µM	> 100 µM	6.85 µM	> 100 µM	4.28 µM	> 100 µM	4.04 µM	> 100 µM	> 100 µM	> 100 µM	9.23 µM	> 100 µM	6.66 µM	> 100 µM	5.84 µM	> 100 µM	42.3 µM	> 100 µM	> 100 µM	> 100 µM
CS(=O)(=O)OCCN(CCOS(C)(=O)=O)c1ccc(C=O)cc1		7.18 µM		2.08 µM		68.8 µM		> 100 µM		4.43 µM		44.5 µM		> 75.9 µM		65.5 µM		1.72 µM		> 69.8 µM
COc1cc(OC)c(C(=O)/C=C/c2cccc(OC(C)=O)c2)cc1CC=C(C)C	10.9 µM	28.2 µM	23.2 µM	> 50 µM	7.02 µM	18.5 µM	8.56 µM	> 50 µM	16.9 µM	> 50 µM	8.52 µM	39.8 µM	2.54 µM	44 µM	9.2 µM	17.2 µM	10.2 µM	32.3 µM	6.28 µM	36.6 µM
C=CC1=C(C)C2=NC1=CC1=NC(=CC3=C(C)C4=C(O)C(C(=O)OC)C(=C5NC(=C2)C(C)C5CCC(=O)OC)C4=N3)C(CC)=C1C (stereo not drawn)		> 100 µM		> 100 µM		> 100 µM		> 100 µM		> 100 µM		> 100 µM		> 100 µM		> 100 µM		> 100 µM		> 100 µM
COc1ccc(-c2csc(NC(=O)c3cc(O)c(O)c(O)c3)n2)cc1	17.2 µM	> 33.3 µM	2.61 µM	> 33.3 µM	5.69 µM	> 33.3 µM	4.5 µM	> 33.3 µM	9.61 µM	> 33.3 µM	5.24 µM	26.2 µM	10.7 µM	> 33.3 µM	6.02 µM	> 33.3 µM	7.31 µM	> 33.3 µM	10.9 µM	> 33.3 µM
OCc1ccc(N(CCN2CCCC2)Cc2ccc(F)cc2)cc1Cl	7.88 µM	31 µM	4.15 µM	19.4 µM	16.7 µM	32.9 µM	16.2 µM	40.4 µM	1.97 µM	11.9 µM			13.7 µM	32.1 µM	25 µM	82.1 µM	23.3 µM	67.1 µM	24.8 µM	86.8 µM
NC(=O)c1ccc2nc3c(n2c1)C(=O)C(=O)c1ccccc1-3	1.78 µM	3.18 µM	1.67 µM	3.22 µM	1.88 µM	4.05 µM	0.677 µM	3.73 µM	1.73 µM	3.14 µM	1.77 µM	3.33 µM	0.23 µM	0.702 µM	1.1 µM	2.31 µM	1.64 µM	3.02 µM	1.36 µM	2.65 µM
COc1ccc(OC)c2c(=S)c3ccccc3[nH]c12		> 100 µM		> 100 µM		> 100 µM		> 92.6 µM		> 100 µM		> 100 µM		> 100 µM		> 100 µM		> 100 µM		> 100 µM
CCC(C)C1NC(=O)C(CC(C)C)NC(=O)C(C)NC(=O)C(C(C)C)NC(=O)C(CCCCN)NC(=O)C(CC(C)C)NC(=O)C(C(C)C)NC(=O)[C@H](C)NC(=O)C(C(C)CC)NC(=O)C(CCCN=C(N)N)NC(=O)C(CCCCN)NC(=O)C(CCCN=C(N)N)NC(=O)C(CCCCN)NC(=O)C([C@H](C)CC)NC(=O)C(CCCCN)NC1=O (stereo partly drawn) (cyclo(A[ξV][ξL][ξK][ξV][ξA][ξL][ξI][ξK][X21][ξK][ξR][ξK][ξR][ξI]))	1.99 µM	5.94 µM	1.38 µM	3.04 µM	1.56 µM	3.39 µM	0.783 µM	3.79 µM	1.15 µM	2.82 µM	1.14 µM	2.91 µM	1.54 µM	5.65 µM	2.07 µM	10.1 µM	1.52 µM	2.96 µM	1.56 µM	3.42 µM
Nc1ncnc2c1cnn2Cc1ccc(Cl)cc1	> 100 µM	> 100 µM	31.8 µM	> 100 µM		> 100 µM		> 100 µM		68.6 µM		> 92.5 µM		> 100 µM		> 100 µM		> 100 µM	72.1 µM	> 100 µM
O=C(Nc1cccc(-n2cc(-c3ccncc3)c(-c3ccc(O)c(Cl)c3)n2)c1)Nc1cccc(C(F)(F)F)c1	3.59 µM	23.1 µM	1.87 µM	5.84 µM	2.66 µM	8.21 µM	2.69 µM	> 100 µM	1.9 µM	8.99 µM	1.07 µM	4.14 µM	2.15 µM	6.59 µM	2.88 µM	46.2 µM	1.19 µM	4.05 µM	1.72 µM	4.08 µM
CC(C)Nc1ncc2cc(Oc3ccc(F)cc3F)c(=O)n(C)c2n1	> 25 µM	> 25 µM	> 25 µM	> 25 µM	> 25 µM	> 25 µM	> 25 µM	> 25 µM	5.39 µM	> 25 µM	2.89 µM	21.6 µM	> 25 µM	> 25 µM	> 25 µM	> 25 µM	12.7 µM	> 25 µM	> 25 µM	> 25 µM
CCOC(=O)Nc1nc2c(C)cccc2s1	> 100 µM	> 100 µM	45.7 µM	> 100 µM	64.7 µM	> 100 µM	34.7 µM	> 100 µM	11.7 µM	54.8 µM	13.9 µM	71.5 µM	29.2 µM	> 100 µM	> 100 µM	> 100 µM	> 100 µM	> 100 µM	35.8 µM	> 100 µM
CN(C)CCCn1c2nc(=O)[nH]c(=O)c-2nc2cc(Cl)c(Cl)cc21	22.3 µM	65.6 µM	1.83 µM	4.66 µM	2.58 µM	11.7 µM	3.43 µM	15.3 µM	16.1 µM	30.4 µM	12.2 µM	25.8 µM	0.398 µM	1.64 µM	12.7 µM	26 µM	13.2 µM	26.3 µM	19.5 µM	34.7 µM
Cc1[nH]nc2c1N=C(c1ccccc1Cl)c1cc([N+](=O)[O-])ccc1N2	1.62 µM	> 25 µM	2.12 µM	> 22.2 µM	0.14 µM	> 25 µM	0.175 µM	> 25 µM	0.151 µM	1.62 µM	> 18.9 µM	> 25 µM	0.142 µM	> 25 µM	> 25 µM	> 25 µM	0.245 µM	1.92 µM	> 15.1 µM	> 25 µM
CCOC(=O)c1cc(C(=O)c2cc(OC)c(OC)c(OC)c2)n2ccccc12	0.164 µM	> 100 µM	0.15 µM	> 100 µM	0.0504 µM	> 100 µM	0.0501 µM	> 100 µM	0.0269 µM	9.55 µM	25.6 µM	> 100 µM	0.0606 µM	> 100 µM	0.206 µM	> 100 µM	0.07 µM	0.707 µM	0.0597 µM	> 100 µM
NC(CC1=CCC=CC1)C(=O)O (stereo not drawn)		> 100 µM		> 100 µM		> 100 µM		> 100 µM		> 100 µM		> 100 µM		> 100 µM		> 100 µM		> 100 µM		> 100 µM
Cc1cc(=O)oc2cc(OS(C)(=O)=O)ccc12				> 100 µM		> 100 µM		> 100 µM		> 100 µM		> 100 µM		> 100 µM		> 100 µM		> 100 µM		> 100 µM
C=C1C(=O)O[C@H]2[C@H]1CC/C(COC(=O)c1ccccc1)=C\CC[C@@]1(C)O[C@@H]21	11.8 µM	24 µM			0.407 µM	1.75 µM	0.451 µM	13 µM	16.8 µM	30.8 µM	0.984 µM	2.61 µM	0.497 µM	2.04 µM	2.61 µM	11.6 µM	1.14 µM	2.58 µM	1.23 µM	2.94 µM
O=C(O)C1CCCCC1c1c2ccc(=O)cc-2oc2cc(O)ccc12 (stereo not drawn)		96.5 µM		> 100 µM		> 100 µM		> 100 µM		> 100 µM		41.1 µM		> 100 µM		> 100 µM		62.6 µM		> 100 µM
O=C(COc1cccc(/C=C2\CSc3ccccc3C2=O)c1)c1ccc(Cl)cc1	8.97 µM	41.9 µM	3.97 µM	10.1 µM	0.231 µM	0.606 µM			3.95 µM	8.69 µM	3.27 µM	44.2 µM	0.458 µM	1.81 µM	3.18 µM	9.38 µM	2.67 µM	6.73 µM	1.69 µM	3.39 µM
CC(C)c1ccc(NC(=S)NC(=O)c2ccccc2)cc1		> 100 µM		55.5 µM		62.8 µM		> 100 µM		74.1 µM		> 100 µM		48.8 µM		> 100 µM		44.9 µM		60.6 µM
CN1CCN(c2ccc(C(=O)Nc3cc(-c4cccc(NS(=O)(=O)c5ccccc5)c4)[nH]n3)cc2)CC1	11.7 µM	30.9 µM	17.4 µM	51.8 µM	5.86 µM	27.2 µM	2.89 µM	19.4 µM	0.505 µM	9.75 µM	2.54 µM	16.2 µM	3.25 µM	16.9 µM	14.2 µM	32.2 µM	2.55 µM	12.5 µM	9.38 µM	26.3 µM
NC1=Nc2cc(OCCCN3Cc4ccccc4C3)c(OCC3CC3)cc2C12CCCC2	4.48 µM	17.4 µM	2.31 µM	11.3 µM	2.07 µM	4.88 µM	0.74 µM	4.08 µM	4.48 µM	18.1 µM	0.718 µM	3.14 µM	1.8 µM	4.03 µM	4.53 µM	16.4 µM	1.34 µM	3.58 µM	2.26 µM	7.84 µM
Cc1cc(N(CCCl)CCCl)ccc1/C=N/NC(=O)Cc1cc(=O)oc2cc(O)ccc12				26.3 µM		66.9 µM		66.1 µM		45.3 µM		> 100 µM		20.4 µM		41 µM		44.3 µM		34.7 µM
COc1ccc2c(c1)C1(C(=O)N2)C(C#N)=C(c2ccccc2)Nc2c1c(-c1ccccc1)nn2-c1ccccc1 (stereo not drawn)	2.08 µM	5.14 µM			1.98 µM	4.23 µM	4.6 µM	22.9 µM	1.61 µM	4.35 µM	2.34 µM	6.34 µM	2.09 µM	6.79 µM	3.95 µM	15 µM	1.93 µM	5.3 µM	2.28 µM	8.03 µM
